Source: paper PMC10515483, “Structure–Reactivity Studies of 2-Sulfonylpyrimidines Allow Selective Protein Arylation” (Bioconjugate Chemistry, 2023)

Experiment: NACME arylation rate constant (NMR)
Type: physicochemical
Description: We employed nuclear magnetic resonance (NMR) and UV–vis to quantify the reactivity of our 2-SP derivatives and other representative electrophiles (Figure 2) against cysteine. NMR allowed straightforward determination of reaction rate constants through dual monitoring of the consumption of the warhead and formation of the product by integration of their respective NMR signals (Figures S1–S3). It simultaneously provided a direct readout on reaction specificity and hydrolytic stability of the warhead. All measurements were carried out in KPi buffer in the presence of 5% d^6-dmso, which is generally well-tolerated by a wide range of proteins in in vitro studies. N-acetylcysteine methylester (NACME) and L-glutathione (GSH) are useful model cysteine nucleophiles for in vitro studies of electrophilic agents.[32] Mixing reference electrophile 2-methylsulfonylpyrimidine (4q) with NACME or GSH in a 1:10 ratio (pseudo-first-order conditions) allowed extraction of accurate and reproducible second order rate constants (k). At pH 7.0, quantitative arylation of NACME occurred […] (k ≈ 4.5 × 10^–2 M^–1 s^–1), whereas GSH reacted approximately 3 times slower (k ≈ 1.6 × 10^–2 M^–1 s^–1; Figures S1–S3). […]
transferred to the NMR instrument for acquisition. 1H spectra (16 scans) were recorded every 10 minutes under water suppression conditions. Following acquisition, spectra were analysed using […]

CS(=O)(=O)c1ncccn1 [4q, 2-methylsulfonylpyrimidine]
times faster at pH 7.0 vs 6.5 (NACME): approximately 5 times | second order rate constant k with NACME (pH 7.0, 1:10 ratio): ≈ 4.5 × 10^–2 M^–1 s^–1
